{"source": "paper PMC7561186", "about": "“Rational design of balanced dual-targeting antibiotics with limited resistance” (PLoS Biology, 2020)", "key": {"[1]": {"test_system": "S. aureus clinical isolates", "assay": "microbe, parasite or virus in culture", "format": "cell-based", "details": "Staphylococcus aureus, read-out: MIC"}, "[2]": {"test_system": "Pseudomonas aeruginosa", "assay": "MIC, broth microdilution (CLSI)", "format": "cell-based", "procedure": "(§1) MICs were determined using a standard serial broth microdilution technique according to the CLSI guidelines. Briefly, bacterial strains were inoculated onto MHBII agar plates and were grown overnight at 37 °C. Next, 3 individual colonies from each strain were inoculated into 1 mL MHBII medium and propagated at 37 °C, 250 rpm overnight. In the cases of Enterococcus and Streptococcus sp., cells were plated to BHI agar plates, and BHI broth was used to determine MICs. […] Following dilutions, each well was seeded with 5×10^4 bacterial cells. All measurements were performed in 3 parallel replicates and to avoid possible edge effects in microwell plates, side rows (A and H) were filled with sterile medium. Following inoculations, plates were covered with lids and wrapped in polyethylene plastic bags to minimize evaporation but allow for O2 transfer. Plates were incubated at 37 °C under continuous shaking at 150 rpm for 18 hours. After incubation, OD600 of each well was measured using a BioTek Synergy 2 microplate reader."}, "[3]": {"test_system": "Streptococcus pyogenes", "assay": "MIC, broth microdilution (CLSI)", "format": "cell-based", "procedure": "as §1"}, "[4]": {"test_system": "Escherichia coli", "assay": "MIC, broth microdilution (CLSI)", "format": "cell-based", "details": "Escherichia coli ATCC 25922", "procedure": "as §1"}, "[5]": {"test_system": "Haemophilus influenzae", "assay": "MIC, broth microdilution (CLSI)", "format": "cell-based", "procedure": "as §1"}, "[6]": {"test_system": "Enterococcus faecium", "assay": "MIC, broth microdilution (CLSI)", "format": "cell-based", "procedure": "as §1"}, "[7]": {"test_system": "Shigella flexneri", "assay": "MIC, broth microdilution (CLSI)", "format": "cell-based", "procedure": "as §1"}, "[8]": {"test_system": "Enterococcus faecalis", "assay": "MIC, broth microdilution (CLSI)", "format": "cell-based", "procedure": "as §1"}, "[9]": {"test_system": "CHO-K1 cells", "format": "cell-based, hamster", "details": "for % Micronucleated cells / Micronucleus Test Result: 4 hours, CHO-K1", "procedure": "Genetic toxicity analysis of compounds was performed in an in vitro micronucleus test, according to the protocol described in Diaz and colleagues (2007), at Eurofins Panlabs (St. Charles, MO, US). Micronucleated cells and micronuclei were enumerated by the use of high-content fluorescent cell imaging. The assay was performed on CHO-K1 cells. […] Experiments were performed in 2 biological replicates. All cell lines were tested as being negative for Mycoplasma contamination."}}, "note": "Like-named read-outs stand apart in the source and are kept apart here."}
{"smiles": "Cc1[nH]c(C(=O)Nc2nc3ccc(C(=O)O)cc3s2)c(Cl)c1Cl", "note": "[ULD1]", "values": [{"measurement": "MIC", "setting": "[1]; MSSA / NRS 17 / VISA, S. aureus IHMA 1308247, NRS17, MSSA / VISA", "result": 1, "unit": "µg/mL"}, {"measurement": "MIC", "setting": "[1]; MSSA / NRS 28 / VISA, S. aureus IHMA 1308249, NRS28, MSSA / VISA", "result": 1, "unit": "µg/mL"}, {"measurement": "MIC", "setting": "[1]; MSSA / NRS 52, S. aureus IHMA 1308252, NRS52, MSSA / VSSA* (*Expected VAN intermediate, confirmed VAN susceptible twice), test date 2018-11-07", "result": 0.12, "unit": "µg/mL"}, {"measurement": "MIC", "setting": "[1]; MSSA / USA100 / VRSA, S. aureus IHMA 672236, VRS6, MSSA / VRSA, USA100", "result": 0.25, "unit": "µg/mL"}, {"measurement": "MIC", "setting": "[1]; MSSA, S. aureus IHMA 1563826, MSSA / VSSA", "result": 0.5, "unit": "µg/mL"}, {"measurement": "MIC", "setting": "[1]; MSSA, S. aureus IHMA 1565492, MSSA / VSSA", "result": 0.25, "unit": "µg/mL"}, {"measurement": "MIC", "setting": "[1]; MSSA, S. aureus IHMA 1569499, MSSA / VSSA", "result": 1, "unit": "µg/mL"}, {"measurement": "MIC", "setting": "[1]; MSSA, S. aureus IHMA 1569754, MSSA / VSSA", "result": 0.25, "unit": "µg/mL"}, {"measurement": "MIC", "setting": "[1]; MSSA, S. aureus IHMA 1574202, MSSA / VSSA", "result": 0.5, "unit": "µg/mL"}, {"measurement": "MIC", "setting": "[1]; MSSA, S. aureus IHMA 1575652, MSSA / VSSA", "result": 0.5, "unit": "µg/mL"}, {"measurement": "MIC", "setting": "[1]; MSSA, S. aureus IHMA 1575779, MSSA / VSSA", "result": 1, "unit": "µg/mL"}, {"measurement": "MIC", "setting": "[1]; MSSA, S. aureus IHMA 1576329, MSSA / VSSA", "result": 1, "unit": "µg/mL"}, {"measurement": "MIC", "setting": "[1]; MSSA, S. aureus IHMA 1577800, MSSA / VSSA", "result": 0.5, "unit": "µg/mL"}, {"measurement": "MIC", "setting": "[1]; MSSA, S. aureus IHMA 1578560, MSSA / VSSA", "result": 1, "unit": "µg/mL"}, {"measurement": "MIC", "setting": "[1]; MSSA, S. aureus IHMA 1580233, MSSA / VSSA", "result": 0.25, "unit": "µg/mL"}, {"measurement": "MIC", "setting": "[1]; MSSA, S. aureus IHMA 1580925, MSSA / VSSA", "result": 0.25, "unit": "µg/mL"}, {"measurement": "MIC", "setting": "[1]; MSSA, S. aureus IHMA 1580955, MSSA / VSSA", "result": 1, "unit": "µg/mL"}, {"measurement": "MIC", "setting": "[1]; MSSA, S. aureus IHMA 1582586, MSSA / VSSA", "result": 1, "unit": "µg/mL"}, {"measurement": "MIC", "setting": "[1]; MSSA, S. aureus IHMA 1582691, MSSA / VSSA", "result": 0.25, "unit": "µg/mL"}, {"measurement": "MIC", "setting": "[1]; MSSA, S. aureus IHMA 1584230, MSSA / VSSA", "result": 1, "unit": "µg/mL"}, {"measurement": "MIC", "setting": "[1]; MSSA, S. aureus IHMA 1587279, MSSA / VSSA", "result": 0.5, "unit": "µg/mL"}, {"measurement": "MIC", "setting": "[1]; MSSA, S. aureus IHMA 1591459, MSSA / VSSA", "result": 0.5, "unit": "µg/mL"}, {"measurement": "MIC", "setting": "[1]; MSSA, S. aureus IHMA 1592749, MSSA / VSSA", "result": 1, "unit": "µg/mL"}, {"measurement": "MIC", "setting": "[1]; MSSA, S. aureus IHMA 1592751, MSSA / VSSA", "result": 0.5, "unit": "µg/mL"}, {"measurement": "MIC", "setting": "[1]; MSSA, S. aureus IHMA 1594297, MSSA / VSSA", "result": 1, "unit": "µg/mL"}, {"measurement": "MIC", "setting": "[1]; MSSA, S. aureus IHMA 1597120, MSSA / VSSA", "result": 1, "unit": "µg/mL"}, {"measurement": "MIC", "setting": "[1]; MSSA, S. aureus IHMA 1597125, MSSA / VSSA", "result": 1, "unit": "µg/mL"}, {"measurement": "MIC", "setting": "[1]; MSSA, S. aureus IHMA 1599157, MSSA / VSSA", "result": 1, "unit": "µg/mL"}, {"measurement": "MIC", "setting": "[1]; MSSA, S. aureus IHMA 1599506, MSSA / VSSA", "result": 0.12, "unit": "µg/mL"}, {"measurement": "MIC", "setting": "[1]; MSSA, S. aureus IHMA 1602078, MSSA / VSSA", "result": 0.5, "unit": "µg/mL"}, {"measurement": "MIC", "setting": "[1]; MSSA, S. aureus IHMA 1604586, MSSA / VSSA", "result": 0.5, "unit": "µg/mL"}, {"measurement": "MIC", "setting": "[1]; MSSA, S. aureus IHMA 1604609, MSSA / VSSA", "result": 0.5, "unit": "µg/mL"}, {"measurement": "MIC", "setting": "[1]; MSSA, S. aureus IHMA 1609919, MSSA / VSSA", "result": 0.5, "unit": "µg/mL"}, {"measurement": "MIC", "setting": "[1]; MSSA, S. aureus IHMA 1622864, MSSA / VSSA", "result": 0.5, "unit": "µg/mL"}, {"measurement": "MIC", "setting": "[1]; MSSA, S. aureus IHMA 1626392, MSSA / VSSA", "result": 1, "unit": "µg/mL"}, {"measurement": "MIC", "setting": "[1]; MSSA, S. aureus IHMA 1713793, MSSA / VSSA", "result": 1, "unit": "µg/mL"}, {"measurement": "MIC", "setting": "[2]; ATCC27853, Pseudomonas aeruginosa ATCC 27853", "result": 8, "unit": "µg/mL"}, {"measurement": "MIC", "setting": "[2]; Pseudomonas aeruginosa ATCC 27853", "result": 8, "unit": "µg/mL"}, {"measurement": "MIC", "setting": "[2]; Pseudomonas aeruginosa B3-1811, Ciprofloxacin-R, Cephalosporin-R", "result": "> 64", "unit": "µg/mL"}, {"measurement": "MIC", "setting": "[3]; Streptococcus pyogenes ATCC 14289", "result": 0.25, "unit": "µg/mL"}, {"measurement": "MIC", "setting": "[3]; Streptococcus pyogenes ATCC 19615", "result": 0.125, "unit": "µg/mL"}, {"measurement": "MIC", "setting": "[4]", "result": 4, "unit": "µg/mL"}, {"measurement": "MIC", "setting": "[5]; ATCC49247, Haemophilus influenzae ATCC 49247", "result": "≤ 0.0312", "unit": "µg/mL"}, {"measurement": "MIC", "setting": "[5]; Haemophilus influenzae ATCC 35056", "result": 0.125, "unit": "µg/mL"}, {"measurement": "MIC", "setting": "[5]; Haemophilus influenzae ATCC 49247", "result": "< 0.0312", "unit": "µg/mL"}, {"measurement": "MIC", "setting": "[6]; Enterococcus faecium ATCC 19434", "result": 2, "unit": "µg/mL"}, {"measurement": "MIC", "setting": "[6]; Enterococcus faecium ATCC 700221, VRE (VanA+)", "result": 0.0625, "unit": "µg/mL"}, {"measurement": "MIC", "setting": "[6]; Enterococcus faecium BAA-2320, VRE (VanA+)", "result": 0.25, "unit": "µg/mL"}, {"measurement": "MIC", "setting": "[6]; Enterococcus faecium CCUG 56858, VRE (VanB+)", "result": 2, "unit": "µg/mL"}, {"measurement": "MIC", "setting": "[7]; Shigella flexneri 668", "result": 16, "unit": "µg/mL"}, {"measurement": "MIC", "setting": "[7]; Shigella flexneri HNCMB 20018", "result": 8, "unit": "µg/mL"}, {"measurement": "MIC", "setting": "[8]; Enterococcus faecalis ATCC 29212", "result": 0.125, "unit": "µg/mL"}, {"measurement": "MIC", "setting": "[8]; Enterococcus faecalis ATCC 51575, VRE (VanB+)", "result": 0.0625, "unit": "µg/mL"}, {"measurement": "% Micronucleated cells", "setting": "[9]; 1.3 x 10^-4 M", "result": 0.32, "unit": "%"}, {"measurement": "Micronucleus Test Result", "setting": "[9]; 1.3 x 10^-4 M", "result": "- (A negative test (-) result indicates P > 0.05 by t-test and percentage of micronucleated cells less than 2-fold higher than the background level)"}, {"measurement": "% Micronucleated cells", "setting": "[9]; 2.5 x 10^-4 M", "result": 0.56, "unit": "%"}, {"measurement": "Micronucleus Test Result", "setting": "[9]; 2.5 x 10^-4 M", "result": "- (A negative test (-) result indicates P > 0.05 by t-test and percentage of micronucleated cells less than 2-fold higher than the background level)"}, {"measurement": "% Micronucleated cells", "setting": "[9]; 3.1 x 10^-5 M", "result": 0.47, "unit": "%"}, {"measurement": "Micronucleus Test Result", "setting": "[9]; 3.1 x 10^-5 M", "result": "- (A negative test (-) result indicates P > 0.05 by t-test and percentage of micronucleated cells less than 2-fold higher than the background level)"}, {"measurement": "% Micronucleated cells", "setting": "[9]; 5.0 x 10^-4 M", "result": 0.57, "unit": "%"}, {"measurement": "Micronucleus Test Result", "setting": "[9]; 5.0 x 10^-4 M", "result": "- (A negative test (-) result indicates P > 0.05 by t-test and percentage of micronucleated cells less than 2-fold higher than the background level)"}, {"measurement": "% Micronucleated cells", "setting": "[9]; 6.2 x 10^-5 M", "result": 0.36, "unit": "%"}, {"measurement": "Micronucleus Test Result", "setting": "[9]; 6.2 x 10^-5 M", "result": "- (A negative test (-) result indicates P > 0.05 by t-test and percentage of micronucleated cells less than 2-fold higher than the background level)"}, {"measurement": "genetic toxicity", "setting": "[9]; CHO-K1 micronucleus assay, in words", "result": "No genetic toxicity"}]}
